From patent publication US20260258035A1, “FIVE-MEMBERED AND SIX-MEMBERED NITROGEN-CONTAINING COMPOUND, AND INTERMEDIATE, PREPARATION METHOD AND USE THEREOF” (HANGZHOU SYNRX THERAPEUTICS BIOMEDICAL TECHNOLOGY CO., LTD., priority 2022, published 2026)

Assays:
Mouse PK assay = format: in vivo; details: CD1 mice, oral administration, 30 mg/kg, plasma; for bioavailability / half-life / MRT: mouse; for half-life: read-out: Half-life period (converted); for MRT: read-out: Mean residence time
Protocol: The goal of this assay was to study the pharmacokinetics of the test compound on CD1 mice (6-8 weeks old, Zhejiang Vegavit Bio-technology Co., Ltd.) after oral administration. The specific experimental procedures were as follows: • 1) the compound was dissolved in 8% DMSO+72% PEG 400+20% ([…]); and • 2) blood samples were collected, with 0.03 mL collected at 0.25 h, 0.5 h, 1 h, 2 h, 4 h, 8 h, and 24 h, and EDTA-K2 was added. CD1 mice: Approximately 0.03 mL of blood was collected at each time point. The blood was centrifuged for 5 min at 4000 g in a centrifuge at 4° C. to collect plasma. Plasma samples were aliquoted into clean polyethylene microcentrifuge tubes and then stored in a freezer at −75±15° C. before analysis; and • 3) samples were analyzed, and the concentration of the compound in each plasma sample was analyzed with LC-MS/MS. For plasma measurements, pharmacokinetic parameters were calculated using WinNonlin (Phoenix™, version 8.3) or other similar software.

PXR = biological target: T1, PXR (Homo sapiens, UniProt O75469); assay: PXR assay (DPX2 luciferase reporter cells); format: cell-based; details: 24 h; for PXR Activation @30 uM (% Ctrl): positive control rifampicin
T1 construct: host or cells: DPX2 (HepG2)
T1 sequence (O75469 1-434): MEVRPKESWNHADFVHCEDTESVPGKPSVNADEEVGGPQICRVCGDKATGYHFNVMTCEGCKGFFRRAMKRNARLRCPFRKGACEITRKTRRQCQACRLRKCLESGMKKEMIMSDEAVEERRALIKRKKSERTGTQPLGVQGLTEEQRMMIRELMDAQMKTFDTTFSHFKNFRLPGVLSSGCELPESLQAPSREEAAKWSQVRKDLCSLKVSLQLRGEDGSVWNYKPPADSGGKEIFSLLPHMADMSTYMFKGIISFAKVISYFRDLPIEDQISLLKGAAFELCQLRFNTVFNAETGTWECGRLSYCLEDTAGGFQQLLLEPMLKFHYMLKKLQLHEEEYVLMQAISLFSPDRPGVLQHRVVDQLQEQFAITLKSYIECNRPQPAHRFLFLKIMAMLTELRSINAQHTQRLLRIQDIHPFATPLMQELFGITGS
Protocol: 1) Information of Cell Line
DPX2 (HepG2 cells stably transfected with PXR and luciferase reporter) cells were purchased from Puracyp Inc (Carlsbad, CA).
2) Experimental Procedures a) Reagents and Consumables
The DPX2 cells were cultured in the growth medium containing 1000 fetal bovine serum. The DPX2 cells in a T-75 flask were cultured in the […] incubator at 37° C. with 950% relative humidity, and digested when the cells grew to cover 80-90% of the bottom of the flask.
The surface layer of the T-75 cultured cells was washed with 10 mL of PBS; PBS was pipetted; 3-5 mL of tryp sin was added; the cells were digested at 37° C. for 5 minutes or until the cells were digested to be suspended; and excessive medium containing fetal bovine serum was added to stop trypsinization. The cell suspension was transferred to a conical-bottomed centrifuge tube and centrifuged at 150 g rpm for 5 minutes at room temperature; the supernatant was carefully pipetted; and the cells were resuspended with the treatment medium, with the concentration adjusted to 3.2×10^5 cells/mL (incubation time: 24 hours, plate seeding density: […]). 25 μL of the cell suspension was added to each well of the 384-well cell culture plate.
The cell culture plate was placed and cultured for 24 h in the […] incubator with 9500 humidity at 37° C. c) Formulation of Compound
The stock solution of each of 1000× test compound, the positive control (rifampicin), and the negative control (propranolol) was prepared with DMSO. The final concentrations of the positive control (rifampicin) were 1 μM and 10 μM, and the final concentration of the negative control (propranolol) was 10 μM. The final concentrations of the test compound were 10 μM, 1 μM, 0.1 μM, or EC50 (30 μM, 10 μM, 3 μM, 1 μM, 0.3 μM, 0.1 μM). The final concentration of DMSO was 0.10. The cell culture plate was taken out from the incubator, and 25 nL of the stock solution of the positive control, negative control or test compound was directly added with Echo, each with three parallel concentrations. The cell culture plate was placed in the incubator and continued to be incubated for 24 h. Before starting the assay with the substrate, the cell morphology and the monolayer integrity were checked to ensure that the monolayer was of acceptable research quality. […]
d) Quantitative Detection with PXR Activation
After 24 hours of dosing, the culture could be quantitatively detected with PXR activation. The CellTiter-Fluor™ Cell Viability Assay Kit and One-Glo Luciferase reagent were equilibrated to room temperature. The GF-AFC substrate (10 μL) was added to the assay buffer (10 ml) to develop a 2× reagent, which was then diluted into a 1× reagent with 10 ml of PBS. The ONE-Glo Luciferase substrate was added to the ONE-Glo Luciferase assay buffer. The culture plate was taken out from the incubator; the medium was discarded; 1× of CellTiter-Fluor™ reagent was poured into the loading slot; 25 μL of reagent were added per well to the culture plate with a pipetting workstation; and the culture plate was then incubated in the incubator for 30 minutes. The cell culture plate was taken out from the incubator, and cooled slightly to room temperature; and the fluorescence value was determined with a fully automatic quantitative microplate reader, with the excitation light of 400 nm and the emission light of 505 nm. The ONE-Glo reagent was poured into the loading slot, with 25 μL per well, and the resulting mixture was gently mixed in the plate, and incubated at room temperature for 5 minutes to determine the luminescence value.

PARG = PARG (Homo sapiens, UniProt Q86W56); assay: Biochemical assay (PARG, TFMU-ADPr substrate)
PARG, sequence (Q86W56 whole entry): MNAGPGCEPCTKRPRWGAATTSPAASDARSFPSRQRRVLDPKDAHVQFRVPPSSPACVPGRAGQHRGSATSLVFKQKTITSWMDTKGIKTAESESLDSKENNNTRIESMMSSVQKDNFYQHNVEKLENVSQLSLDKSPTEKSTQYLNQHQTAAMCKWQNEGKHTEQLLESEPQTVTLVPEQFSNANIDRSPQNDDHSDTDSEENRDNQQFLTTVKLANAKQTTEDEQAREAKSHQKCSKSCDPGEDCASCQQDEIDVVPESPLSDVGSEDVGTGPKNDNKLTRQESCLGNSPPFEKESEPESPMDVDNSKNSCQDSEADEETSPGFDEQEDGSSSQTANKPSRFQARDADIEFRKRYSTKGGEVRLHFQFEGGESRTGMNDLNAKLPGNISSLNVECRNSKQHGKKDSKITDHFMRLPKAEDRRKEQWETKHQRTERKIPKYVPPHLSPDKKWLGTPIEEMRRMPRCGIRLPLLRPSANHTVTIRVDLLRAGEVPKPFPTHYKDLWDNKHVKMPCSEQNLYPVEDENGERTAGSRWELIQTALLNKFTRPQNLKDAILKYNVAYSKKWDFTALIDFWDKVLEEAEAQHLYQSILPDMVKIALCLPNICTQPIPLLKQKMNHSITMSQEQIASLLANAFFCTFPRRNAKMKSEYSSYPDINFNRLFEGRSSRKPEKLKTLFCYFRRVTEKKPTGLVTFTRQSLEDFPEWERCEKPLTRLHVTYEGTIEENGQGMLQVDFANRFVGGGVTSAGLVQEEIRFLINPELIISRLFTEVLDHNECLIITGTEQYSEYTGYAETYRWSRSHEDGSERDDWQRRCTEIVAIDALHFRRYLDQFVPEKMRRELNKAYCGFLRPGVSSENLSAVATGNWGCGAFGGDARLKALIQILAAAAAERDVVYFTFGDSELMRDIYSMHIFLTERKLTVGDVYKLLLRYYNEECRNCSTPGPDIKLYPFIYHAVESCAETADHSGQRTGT

[1] = 4 nM PARG, 66.2 uM TFMU-ADPr, 3 min at room temperature

Compound	Area under the curve (0-last; hr*ng/mL) (Mouse PK assay) [ng·h/mL]	Peak concentration (Mouse PK assay) [ng/mL]	Time to peak (Mouse PK assay) [h]	bioavailability (Mouse PK assay) [%]	half-life (Mouse PK assay) [h]	MRT (Mouse PK assay) [h]	PXR Activation @30 uM (Fold) (PXR)	PXR Activation @30 uM (% Ctrl) (PXR)	IC50 (PARG; [1]) [nM]	IC50 (PARG; PARG, TFMU-ADPr substrate) [nM]
CC(C)C(=O)N1CCN(c2cc(S(=O)(=O)NC3(C#N)CC3)cn3c(-c4nnc(C(F)(F)F)s4)ncc23)CC1 [Example 167, N-(1-cyanocyclopropyl)-8-(4-isobutyrylpiperazin-1-yl)-3-(5-(trifluoromethyl)-1,3,4-thiadiazol-2-yl)imidazo[1,5-a]pyridine-6-sulfonamide]	29273	4087	1.67	85	2.75	4.81	5.0	34	< 100	16.6
CC(C)C(=O)N1CCN(c2cc(S(=O)(=O)NC3(C#N)CC3)cn3c(-c4nnc(C(F)F)s4)ncc23)CC1 [Example 32, N-(1-cyanocyclopropyl)-3-(5-(difluoromethyl)-1,3,4-thiadiazol-2-yl)-8-(4-isobutyrylpiperazin-1-yl)imidazo[1,5-a]pyridine-6-sulfonamide]	13174	5317	0.333	47	1.31	1.92	2.7	19	< 100	0.77
